Test results: BindingDB's records for doi:10.1016/S1074-5521(00)00052-1 (Northwestern University, 2001)

Target: Beta-lactamase (Escherichia coli (strain K12), UniProt P00811)
Assay: Enzyme Inhibition Assay
Conditions: pH 7
Description: Enzyme inhibition assay using AmpC or TEM-1 from escherichia coli.

Beta-lactamase, sequence (P00811 whole entry): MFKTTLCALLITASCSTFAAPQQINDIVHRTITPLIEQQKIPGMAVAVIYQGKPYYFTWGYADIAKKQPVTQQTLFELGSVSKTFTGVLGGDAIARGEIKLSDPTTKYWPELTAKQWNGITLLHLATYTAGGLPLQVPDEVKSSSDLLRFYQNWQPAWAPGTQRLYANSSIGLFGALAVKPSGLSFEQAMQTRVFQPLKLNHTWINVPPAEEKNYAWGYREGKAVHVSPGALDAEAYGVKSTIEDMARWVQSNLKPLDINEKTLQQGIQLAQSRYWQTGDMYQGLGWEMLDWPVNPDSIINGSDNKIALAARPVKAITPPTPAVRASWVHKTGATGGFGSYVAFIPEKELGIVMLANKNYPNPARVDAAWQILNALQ

| SMILES | Ki |
| --- | --- |
| O=C(COc1ccccc1)NCB(O)O [Acylglycineboronic acid, 7] | 0.7 µM |
| CCOc1ccc2ccccc2c1C(=O)NCB(O)O [Acylglycineboronic acid, 10] | 0.033 µM |
| O=C(Cc1cccs1)NCB(O)O [N-2-THIOPHEN-2-YL-ACETAMIDE BORONIC ACID] | 0.32 µM |
| O=C(CSc1ccncc1)NCB(O)O [Acylglycineboronic acid, 13] | 0.175 µM |
| CB(O)O [Methylboronic Acid] | 1000 µM |
| OB(O)O [Boric acid] | 2800 µM |
| O=CNCB(O)O [Acylglycineboronic acid, 3] | 4.8 µM |
| CC(=O)NCB(O)O [Acylglycineboronic acid, 5] | 18.5 µM |
| O=C(CCl)NCB(O)O [Acylglycineboronic acid, 12] | 0.24 µM |
| O=C(Cc1ccccc1)NCB(O)O [Acylglycineboronic acid, 6] | 0.57 µM |
| CC(Oc1ccccc1)C(=O)NCB(O)O (stereo unspecified) [Acylglycineboronic acid, 8] | 0.3 µM |
